The values below come from US20040110826A1, “Receptor Antagonists” (priority 2001, published 2004).

Molecules are shown by their SMILES.

In the experiment the target is T1, α2C-adrenoceptor (Homo sapiens, UniProt P18825).
T1 sequence (P18825 1-462): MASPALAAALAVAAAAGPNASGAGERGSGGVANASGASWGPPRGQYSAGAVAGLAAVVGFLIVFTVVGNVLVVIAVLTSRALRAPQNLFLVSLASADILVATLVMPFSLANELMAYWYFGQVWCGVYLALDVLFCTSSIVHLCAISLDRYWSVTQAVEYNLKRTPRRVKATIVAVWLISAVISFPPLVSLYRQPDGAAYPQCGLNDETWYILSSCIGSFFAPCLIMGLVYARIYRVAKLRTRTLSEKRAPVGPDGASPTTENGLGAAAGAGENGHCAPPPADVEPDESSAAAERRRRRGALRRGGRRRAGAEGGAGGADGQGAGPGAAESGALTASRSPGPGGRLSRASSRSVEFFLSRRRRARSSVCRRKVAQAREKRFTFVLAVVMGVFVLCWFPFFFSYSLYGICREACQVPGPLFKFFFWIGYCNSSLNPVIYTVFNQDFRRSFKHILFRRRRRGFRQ
The experiment in a line: α2c-Adrenoceptor binding test (3H-MK-912 binding, HepG2 cell membrane fraction). Set-up: the membrane fraction of the cultured cells was used; endogenous in cells; host or cells: HepG2 (human hepatoma) cell membrane fraction. Conditions: 0.5 h, test compound 10^−7 mol/l, read-out: Inhibition ratio (%) against α2c-adrenoceptor binding. As for the experimental part:
Adrenoceptor Binding Activity (α2c-Adrenoceptor Binding Test)
This test was carried out according to the method of Schaak et al. [Journal of Pharmacological Experimental Therapeutics, Vol. 281, p. 983 (1997)] as slightly modified.
Human hepatocyto HepG2 cells were cultured in DMEM medium (GIBCO BRL) containing 10% fetal bovine serum (FBS), 100 units/ml penicillin and 100 μg/ml streptomycin, and the membrane fraction of the cultured cells was used. The cultured cells were washed with phosphate-buffered saline (PBS), then scraped with a scraper and recovered by centrifugation at 800 rpm for 5 minutes. To the cells was added a buffer [50 mmol/l tris(hydroxymethyl)aminomethane: Tris, 5 mmol/l ethylenediamine tetraacetic acid (EDTA), pH 7.5], and the cells were suspended using Polytron Homogenizer (Kinematica), followed by centrifugation at 39,000×g for 10 minutes. The precipitate thus obtained was re-suspended in the same amount of the buffer, and the cell suspension was obtained by centrifugation and removing the supernatant in a similar manner.
To 100 μl of the cell suspension were added 80 μl of tritium-labeled MK-912 (methyl-^3H: 2.89 TBq/mmol; New England Nuclear) (final concentration: 1.0 nmol/l) and 20 μl of a test compound. The mixture was allowed to stand at 25° C. for 30 minutes and then rapidly filtered by suction through a glass fiber filter treated with 0.3% polyethyleneimine (GF/C; Whatman). The filter was immediately washed 3 times with 200 μl of an ice-cooled buffer and transferred to a vial. A liquid scintillator (ULTIMA GOLD; Packard) was added thereto and the radioactivity was measured with a liquid scintillation counter (Packard).
The inhibition ratio of the test compound against the α2C-adrenoceptor binding (^3H-MK-912 binding) was calculated using the following equation.
Inhibition ratio (%)={1−(amount of the binding in the presence of the test compound−amount of the nonspecific binding)/(amount of the total binding−amount of the nonspecific binding)}×100
(Note) Amount of the total binding means the amount of radioactivity of ^3H-MK-912 bound in the absence of the test compound. Amount of the nonspecific binding means the amount of radioactivity of ^3H-MK-912 bound in the presence of 10 μmol/l Yohimbine (Sigma). Amount of the binding in the presence of the test compound means the amount of radioactivity of ^3H-MK-912 bound in the presence of varied concentrations of the test compound.
Consider `Nc1ncc(CN2CCN(c3ccccc3)CC2)c2nc(-c3ccco3)nn12` [Compound 2, 5-Amino-2-(2-furyl)-8-(4-phenylpiperazin-1-ylmethyl)[1,2,4]triazolo[1,5-c]pyrimidine], for which the inhibition at 0.1 µM was determined as 80%.
Next, `Nc1ncc(CN2CCc3ccccc3C2)c2nc(-c3ccco3)nn12` [Compound 19, 5-Amino-2-(2-furyl)-8-(1,2,3,4-tetrahydroisoquinolin-2-ylmethyl)[1,2,4]triazolo[1,5-c]pyrimidine]: 96%; `Nc1ncc(CN2CCN(c3ncccn3)CC2)c2nc(-c3ccco3)nn12` [Compound 23, 5-Amino-2-(2-furyl)-8-[4-(2-pyrimidinyl)piperazin-1-ylmethyl][1,2,4]triazolo[1,5-c]pyrimidine]: 70%; `Nc1ncc(CN2CCN(c3ccccc3F)CC2)c2nc(-c3ccco3)nn12` [Compound 45, 5-Amino-8-[4-(2-fluorophenyl)piperazin-1-ylmethyl]-2-(2-furyl)[1,2,4]triazolo[1,5-c]pyrimidine]: 88%.
To `Nc1ncc(CN2CCN(c3ccccc3Cl)CC2)c2nc(-c3ccco3)nn12` [Compound 49, 5-Amino-8-[4-(2-chlorophenyl)piperazin-1-ylmethyl]-2-(2-furyl)[1,2,4]triazolo[1,5-c]pyrimidine] belongs 91%.
As for `Cc1ccccc1N1CCN(Cc2cnc(N)n3nc(-c4ccco4)nc23)CC1` [Compound 55, 5-Amino-2-(2-furyl)-8-[4-(2-methylphenyl)piperazin-1-ylmethyl][1,2,4]triazolo[1,5-c]pyrimidine], the inhibition at 0.1 µM was found to be 92%.
On to `N#Cc1ccccc1N1CCN(Cc2cnc(N)n3nc(-c4ccco4)nc23)CC1` [Compound 59, 5-Amino-8-[4-(2-cyanophenyl)piperazin-1-ylmethyl]-2-(2-furyl)[1,2,4]triazolo[1,5-c]pyrimidine], for which the inhibition at 0.1 µM came out at 65%.
Turning to `COc1ccc2c(c1)CCN(Cc1cnc(N)n3nc(-c4ccco4)nc13)C2` [Compound 89, 5-Amino-2-(2-furyl)-8-(6-methoxy-1,2,3,4-tetrahydroisoquinolin-2-ylmethyl)[1,2,4]triazolo[1,5-c]pyrimidine], the inhibition at 0.1 µM stood at 86%.
On to `COCCNc1ncc(CN2CCc3ccccc3C2)c2nc(-c3ccco3)nn12` [Compound 127, 2-(2-Furyl)-5-(2-methoxyethylamino)-8-(1,2,3,4-tetrahydroisoquinolin-2-ylmethyl)[1,2,4]triazolo[1,5-c]pyrimidine], for which the inhibition at 0.1 µM is 68%.
Next, `Nc1ncc(CN2CCN(c3ccccc3)CC2)c2nc(-c3cccnc3)nn12` [Compound 144, 5-Amino-8-(4-phenylpiperazin-1-ylmethyl)-2-(3-pyridyl)[1,2,4]triazolo[1,5-c]pyrimidine]: 75%.
Regarding `Nc1ncc(CN2CCN(c3ccccc3)CC2)c2nc(C3CCCCC3)nn12` [Compound 166, 5-Amino-2-cyclohexyl-8-(4-phenylpiperazin-1-ylmethyl)[1,2,4]triazolo[1,5-c]pyrimidine], the inhibition at 0.1 µM is 84%.
As for `COc1cc2c(cc1OC)CN(Cc1cnc(NCCCO)n3nc(-c4ccco4)nc13)CC2` [Compound 182, 8-(6,7-Dimethoxy-1,2,3,4-tetrahydroisoquinolin-2-ylmethyl)-2-(2-furyl)-5-(3-hydroxypropylamino)[1,2,4]triazolo[1,5-c]pyrimidine], the inhibition at 0.1 µM is 72%.
In the case of `Cc1ccc2c(c1)CN(Cc1cnc(N)n3nc(-c4ccco4)nc13)CC2` [Compound 195, 5-Amino-2-(2-furyl)-8-(7-methyl-1,2,3,4-tetrahydroisoquinolin-2-ylmethyl)[1,2,4]triazolo[1,5-c]pyrimidine], the inhibition at 0.1 µM came to 87%.
To `Nc1ncc(CN2CCC(c3ccccc3)CC2)c2nc(-c3ccco3)nn12` [Compound 203, 5-Amino-2-(2-furyl)-8-(4-phenylpiperidinomethyl)[1,2,4]triazolo[1,5-c]pyrimidine] belongs 83%.
For `Nc1ncc(CNCC2COc3ccccc3O2)c2nc(-c3ccco3)nn12` (stereo not shown) [Compound 213, 5-Amino-8-(1,4-benzodioxan-2-ylmethylaminomethyl)-2-(2-furyl)[1,2,4]triazolo[1,5-c]pyrimidine], the inhibition at 0.1 µM came out at 96%.
Regarding `CN(Cc1ccccc1)c1ncc(CN2CCN(c3ccccc3F)CC2)c2nc(-c3ccco3)nn12` [Compound 370, 8-[4-(2-Fluorophenyl)piperazin-1-ylmethyl]-2-(2-furyl)-5-(N-methylbenzylamino)[1,2,4]triazolo[1,5-c]pyrimidine], the inhibition at 0.1 µM stood at 91%.
Next, `CSc1ncc(CN2CCc3ccccc3C2)c2nc(-c3ccco3)nn12` [Compound 452, 2-(2-Furyl)-5-methylthio-8-(1,2,3,4-tetrahydroisoquinolin-2-ylmethyl)[1,2,4]triazolo[1,5-c]pyrimidine]: 58%.
To `O=c1[nH]cc(CN2CCN(c3ccccc3)CC2)c2nc(-c3ccco3)nn12` [Compound 483, 2-(2-Furyl)-8-(4-phenylpiperazin-1-ylmethyl)-6H-[1,2,4]triazolo[1,5-c]pyrimidin-5-one] belongs 60%; to `C1=C(CN2CCc3ccccc3C2)c2nc(-c3ccco3)nn2C2=NCCN12` [Compound 491, 2-(2-Furyl)-4-(1,2,3,4-tetrahydroisoquinolin-2-ylmethyl)-6,7-dihydro-1,3,5a,8,8b-pentaaza-as-indacene], 74%.
